Assay results taken from US20070281960A1, “Anti-Histaminic Composition” (priority 2004, published 2007).

Key:
[1] = tested on: human mast cells; details: in vitro; cited from earlier work
[2] = Compatibility of desloratadine with common excipients; type: physicochemical; details: lactose, magnesium stearate, microcrystalline stearate; degrades and changes to a pink colour
From the text: Therefore, extreme caution needs to be taken when formulating desloratadine with various excipients. […] This decomposition is further accelerated under high temperature and humid conditions.

## Clc1ccc2c(c1)CCc1cccnc1C2=C1CCNCC1 [Desloratadine, 8-chloro-6,11-dihydro-11-(4-piperidylidene)-5-H-benzo [5,6] cyclohepta [1,2-b] pyridine]
[1]
  histamine release from human mast cells: inhibits histamine release
[2]
  compatibility with common excipients: incompatible
